Test system: THF-containing double-stranded 17-mer oligodeoxynucleotide (DNA, mismatch bulge abasic, tetrahydrofuran (THF, abasic site analogue) at 6 of strand 1) TCACCNTCGTACGACTC/GAGTCGTACGACGGTGA
Assay: thiazole orange displacement, fluorescence
Conditions: 100 mM KCl, 20 mM Tris-HCl pH 7.4, 0.01% Tween-20, room temperature, 250 nM thiazole orange displaced, 50 nM DNA

Compound	apparent DNA binding constant
NCCNc1ccc(NCCN)c2c1C(=O)c1ccncc1C2=O	1.25 ± 0.32 µM
O=C1c2c(O)ccc(O)c2C(=O)c2c(NCCNCCO)ccc(NCCNCCO)c21	0.083 ± 0.003 µM
